# Assay results published in patent publication US20260028348A1, “MODULATORS OF TNF-ALPHA ACTIVITY” (Forward Therapeutics, Inc., priority 2023, published 2026).
# Tested on: HEK Blue™ TNFα reporter cells
# Assay: TNF-α Induced HEK Blue Cellular Assay
# Assay type: cell-based
# Settings: TNF-α stimulated HEK Blue TNFα reporter cells, 24 hrs, secreted alkaline phosphatase (QUANTI-Blue, 620 nm)
# Outline: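 Reporter cells (10,000/well) with compound ([…] to 0.5 nM final) were stimulated with TNF-α at […] for 24 h at 37 °C. Secreted alkaline phosphatase was read with QUANTI-Blue at 620 nm. IC50 came from a 4-parameter logistic fit, normalized to unstimulated and stimulated DMSO controls.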
structure (smiles),measurement,value
"[2H]C([2H])([2H])N1C(=O)c2cccc(OC(F)F)c2[C@H]2C[C@@H]1c1nc3ccc(-c4cnc5c(c4)OCCC5O)cc3n12 (stereo partly drawn) [Example 48, (7R,14R)-1-(difluoromethoxy)-11-(4-hydroxy-3,4-dihydro-2H-pyrano[3,2-b]pyridin-7-yl)-6-(methyl-d3)-6,7-dihydro-7,14-methanobenzo[f]benzo[4,5]imidazo[1,2-a][1,4]diazocin-5(14H)-one]",IC50,< 0.1 µM
